In PubChem BioAssay AID248 (DTP/NCI, 2004):
Inconclusive results and toxic doses are left out. Square brackets hold non-standard residues; d marks the D form. Peptide text beside a SMILES is read from it. ξ: configuration not given here. ξE = NC(CCC(=O)O)C(=O)O

System: L1210 leukemia ip in BDF1 mice, survival T/C
Assay: NCI In Vivo Anticancer Drug Screen. Data for tumor model L1210 Leukemia (intraperitoneal) in B6D2F1 (BDF1) mice
Conditions: endpoint: mean survival time, higher = longer survival
Method in brief: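 Read-out is survival time, reported as the treated-group measurement over the vehicle-control measurement.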

[1] = dose: 100.0 mg/kg/injection, schedule: Q04DX003 (ip), vehicle: saline with Tween-80
[2] = dose: 200.0 mg/kg/injection, schedule: Q04DX003 (ip), vehicle: saline with Tween-80
[3] = dose: 400.0 mg/kg/injection, schedule: Q04DX003 (ip), vehicle: saline with Tween-80

## NC(CCC(=O)O)C(=O)NCC(=O)O (configuration not stated) (H-[ξE]-Gly-OH)
dose: 12.5 mg/kg/injection, schedule: Q04DX002 (ip), vehicle: saline
  T/C: 96 % of control
dose: 25.0 mg/kg/injection, schedule: Q04DX002 (ip), vehicle: saline
  T/C: 102 % of control
dose: 50.0 mg/kg/injection, schedule: Q04DX002 (ip), vehicle: saline
  T/C: 90 % of control

## O=[N+]([O-])c1ccc(C[Se]c2ncnc3c(C4OC(CO)C(O)C4O)[nH]nc23)cc1 (configuration not stated)
dose: 12.5 mg/kg/injection, schedule: Q01DX005 (ip), vehicle: saline
  T/C: 98 % of control
dose: 25.0 mg/kg/injection, schedule: Q01DX005 (ip), vehicle: saline
  T/C: 104 % of control
dose: 50.0 mg/kg/injection, schedule: Q01DX005 (ip), vehicle: saline
  T/C: 93 % of control

## Nc1ccccc1SC1CC(=O)N(c2ccc(F)cc2)C1=O (configuration not stated)
dose: 100.0 mg/kg/injection, schedule: Q04DX003 (ip), vehicle: carboxymethylcellulose (CMC)
  T/C: 92 % of control
dose: 200.0 mg/kg/injection, schedule: Q04DX003 (ip), vehicle: carboxymethylcellulose (CMC)
  T/C: 92 % of control
dose: 400.0 mg/kg/injection, schedule: Q04DX003 (ip), vehicle: carboxymethylcellulose (CMC)
  T/C: 91 % of control

## CCOC(=O)c1ccc(NCc2nnc3nc(N)[nH]c(=O)c3n2)cc1
dose: 50.0 mg/kg/injection, schedule: Q01DX001 (ip), vehicle: saline with Tween-80
  T/C: 102 % of control
dose: 100.0 mg/kg/injection, schedule: Q01DX001 (ip), vehicle: saline with Tween-80
  T/C: 96 % of control
dose: 200.0 mg/kg/injection, schedule: Q01DX001 (ip), vehicle: saline with Tween-80
  T/C: 98 % of control

## O=C1C(Cl)=CC(=NS(=O)(=O)c2ccccc2)C=C1Cl
dose: 6.25 mg/kg/injection, schedule: Q01DX009 (ip), vehicle: saline with Tween-80
  T/C: 96 % of control
dose: 12.5 mg/kg/injection, schedule: Q01DX009 (ip), vehicle: saline with Tween-80
  T/C: 96 % of control

## COC(=O)[C@@H]1[C@H](O)[C@H](C)[C@H](O)[C@H](C)/C=C\C=C(C)C(=O)Nc2c(C)c(OC(C)=O)c3c(c2O)C(=O)C(C)=C2OCOC(=C23)C(C)=C[C@@](C)(O)[C@H](O)[C@@H](C)[C@H]1OC(C)=O
dose: 100.0 mg/kg/injection, schedule: Q04DX002 (ip), vehicle: Klucel (hydroxypropylcellulose) (HPC)
  T/C: 96 % of control
dose: 200.0 mg/kg/injection, schedule: Q04DX002 (ip), vehicle: Klucel (hydroxypropylcellulose) (HPC)
  T/C: 101 % of control
dose: 400.0 mg/kg/injection, schedule: Q04DX002 (ip), vehicle: Klucel (hydroxypropylcellulose) (HPC)
  T/C: 101 % of control

## CCCCCCc1cc[n+](C(=O)c2ccc([N+](=O)[O-])cc2)cc1
[1]
  T/C: 102 % of control
[2]
  T/C: 104 % of control
[3]
  T/C: 94 % of control

## CCN(CC)CCN1C(=O)c2cccc3cccc(c23)C1=O
dose: 10.5 mg/kg/injection, schedule: Q03HX024 (ip), vehicle: saline
  T/C: 102 % of control
dose: 15.7 mg/kg/injection, schedule: Q03HX024 (ip), vehicle: saline
  T/C: 98 % of control
dose: 23.4 mg/kg/injection, schedule: Q03HX024 (ip), vehicle: saline
  T/C: 99 % of control
dose: 34.8 mg/kg/injection, schedule: Q03HX024 (ip), vehicle: saline
  T/C: 111 % of control
dose: 52.0 mg/kg/injection, schedule: Q03HX024 (ip), vehicle: saline
  T/C: 165 % of control
dose: 96.0 mg/kg/injection, schedule: Q01DX009 (ip), vehicle: saline
  T/C: 111 % of control
dose: 96.0 mg/kg/injection, schedule: Q03HX024 (ip), vehicle: saline
  T/C: 96 % of control
dose: 105.0 mg/kg/injection, schedule: Q01DX001 (ip), vehicle: saline
  T/C: 103 % of control
dose: 105.0 mg/kg/injection, schedule: Q04DX003 (ip), vehicle: saline
  T/C: 100 % of control
dose: 157.0 mg/kg/injection, schedule: Q01DX001 (ip), vehicle: saline
  T/C: 100 % of control
dose: 157.0 mg/kg/injection, schedule: Q04DX003 (ip), vehicle: saline
  T/C: 110 % of control

## Nc1cc(=O)[nH]c(=S)n1-c1ccc(Br)cn1
[1]
  T/C: 98 % of control
[2]
  T/C: 86 % of control
[3]
  T/C: 104 % of control

## CCCNC(=O)Nc1ccc(C)cc1
dose: 100.0 mg/kg/injection, schedule: Q01DX001 (ip), vehicle: carboxymethylcellulose (CMC)
  T/C: 116 % of control
dose: 200.0 mg/kg/injection, schedule: Q01DX001 (ip), vehicle: carboxymethylcellulose (CMC)
  T/C: 94 % of control
dose: 400.0 mg/kg/injection, schedule: Q01DX001 (ip), vehicle: carboxymethylcellulose (CMC)
  T/C: 103 % of control

## O=C(O)Cc1ccc2c3c(ccc([N+](=O)[O-])c13)CC2
dose: 50.0 mg/kg/injection, schedule: Q01DX009 (ip), vehicle: saline with Tween-80
  T/C: 95 % of control
dose: 100.0 mg/kg/injection, schedule: Q01DX009 (ip), vehicle: saline with Tween-80
  T/C: 93 % of control
[1]
  T/C: 96 % of control
dose: 200.0 mg/kg/injection, schedule: Q01DX009 (ip), vehicle: saline with Tween-80
  T/C: 90 % of control
[2]
  T/C: 96 % of control
